Results published in ChEMBL document CHEMBL3044997, “Cytotoxic Effect of Coscinium Fenestratrum (Gaertn.) Colebr. and its Active Principle Berberine on L929 Cells” (2005).

Tests used:
Assay type in all cases: functional
L929 [1] = test: Cytotoxicity against Mus musculus (mouse) L929 cells assessed as metabolically active cells at 200 ug/ml after 24 hr by MTT assay relative to control
L929 [2] = test: Cytotoxicity against Mus musculus (mouse) L929 cells assessed as metabolically active cells at 150 ug/ml after 24 hr by MTT assay relative to control
L929 [3] = test: Cytotoxicity against Mus musculus (mouse) L929 cells assessed as metabolically active cells at 100 ug/ml after 24 hr by MTT assay relative to control
L929 [4] = test: Cytotoxicity against Mus musculus (mouse) L929 cells assessed as metabolically active cells at 50 ug/ml after 24 hr by MTT assay relative to control

SMILES: COc1ccc2cc3[n+](cc2c1OC)CCc1cc2c(cc1-3)OCO2.[Cl-] [BERBERINE CHLORIDE]
- Activity (L929 [1]): 23.57%
- Activity (L929 [2]): 41.77%
- Activity (L929 [3]): 67.41%
- Activity (L929 [4]): 106.45%
